Literature values, collected in patent US12246097B2, “Nanoparticle vaccine adjuvant and methods of use thereof” (Massachusetts Institute of Technology, priority 2018, dated 2025).

Tested on: chick embryo eggs
Conditions: as measured by lethal dose in chick embryo eggs

## 4′-monophosporyl lipid A [MPLA]
  toxicity reduced by a factor (relative to LPS): more than 1000
